{"source": "patent US9814720B2", "about": "“Compositions and methods of inhibiting IL-17 expression of neutrophils” (priority 2014, dated 2017)", "key": {"A. fumigatus hyphae": {"test_system": "A. fumigatus hyphae", "experiment": "In vitro fungal killing assay (hyphal coincubation) with murine neutrophils", "assay_type": "cell-based, Aspergillus fumigatus", "conditions": "IL-6/23-stimulated, inhibitor 20 μM, FIG. 6D", "source_text": "Aspergillus strains—For cornea infections and in vitro fungal killing assays, an RFP expressing strain of A. fumigatus (Af-dsRed) was used. This strain is gpdA promoter driven to constitutively express monomeric dsRed. For subcutaneous “priming” injections, heat-killed, swollen conidia Aspergillus fumigatus strain Af-BP was used. For the Aspergillus hyphal extract used in ROS assay, A. fumigatus strain Af-BP hyphae were pulverized in liquid nitrogen, filtered through a 30 μm pre-separation filter (Miltenyi Biotec) and protein measured by the BCA method (Pierce). Aspergillus hyphal extracts (AspHE) were stored at −20° C. and used at a final concentration of 1 mg/ml.\nA hyphal coincubation assay was used to study the ability of murine and human neutrophils to inhibit A. fumigatus hyphal growth as described. Briefly, 12,500 A. fumigatus dsRed expressing conidia (strain Af-dsRed) per 200 μl Sabouraud dextrose media were added to wells of black-walled 96 well plates with an optically clear bottom (CoStar 3720). After 6 h, the conidia had germinated and the hyphae became adherent to the wells, at which time the medium was removed.\nMurine and human neutrophils were incubated with p-STAT3 (20 μM Stattic or 20 μM INC424) or RORγt inhibitors (20 μM SR1001) for 2 h. Then the cells were stimulated with […] of rIL-6 and 2 μg/ml of rIL-23 for 3 h, washed, and 2×10^5 bone marrow-derived murine neutrophils or 10^5 human peripheral blood neutrophils, with or without recombinant IL-17A, were added to each well with growing hyphae. RPMI media was used as positive control (unimpaired growth), and PBS was used as a negative control (no growth (data not shown)). After 16 h the wells were washed with PBS and the dsRed fungal mass was quantified in a 96-well fluorometer at 550/600 nm excitation/emission filter (Synergy HT, Biotek)."}, "RORγt": {"test_system": "RORγt", "experiment": "RORγt nuclear translocation in IL-6/23-stimulated human neutrophils (nuclear extract western blot, confocal)", "assay_type": "cell-based", "description": "Neutrophils were isolated from peripheral blood of healthy donors. Peripheral blood was incubated in 3% Dextran, and neutrophils isolated by Ficoll gradient centrifugation (Fisher Scientific), with neutrophil purity determined by staining with Wright-Giemsa.\nMurine or human neutrophils were suspended at a density of 10^6 cells/ml and incubated with […] of recombinant mouse or human IL-6 and 2 μg/ml IL-23 in RPMI, and the cells were maintained for 1-3 h at 37° C. in 5% CO2. Various inhibitors were used for assessing STAT3 activation. For STAT3, neutrophils were treated with either the STAT3-SH2 inhibitor, Stattic (20 μM) obtained from Tocris, or the JAK-1, 2 inhibitor, INC424, (aka Ruxolitinib; 20 μM (Selleck BioChem)). For the determination of RORγt-dependent signaling, SR1001 (20 μM; Sigma) was used, which inhibits RORγt binding to the IL-17 promoter site. All inhibitors were added to neutrophils 2 h prior to recombinant IL-6 and IL-23 stimulation. […]\nNeutrophils collected from primed or naïve C57BL/6 mice or unstimulated murine or human neutrophils were incubated with recombinant IL-6 and IL-23 for 60 min. […] Total protein was quantified using the BCA method, denatured with 2× Laemmli buffer (Sigma) and heated to 95° C. for 5 minutes. […] Ten μg of total protein was analyzed on a 12% SDS polyacrylamide gel, and transferred to nitrocellulose. […]"}, "IL-17RC": {"test_system": "IL-17RC", "experiment": "IL-17RC gene expression by qPCR in IL-6/23-stimulated murine neutrophils", "assay_type": "cell-based", "conditions": "IL-6/23 1 h, FIG. 6A", "source_text": "Total bone marrow-derived cells were isolated from mouse femurs and tibias by flushing with RPMI and an 18-gauge needle. Erythrocytes were lysed with 1× lysis buffer (eBioscience), and bone marrow cells were separated on a Percoll (Fisher) gradient by density centrifugation (52%, 69%, and 78%). Cells at the 69-78% interface were harvested, and neutrophil purity (>98%) confirmed by flow cytometry and Wright-Giemsa staining.\nMurine or human neutrophils were suspended at a density of 10^6 cells/ml and incubated with […] of recombinant mouse or human IL-6 and 2 μg/ml IL-23 in RPMI, and the cells were maintained for 1-3 h at 37° C. in 5% CO2. Various inhibitors were used for assessing STAT3 activation. For STAT3, neutrophils were treated with either the STAT3-SH2 inhibitor, Stattic (20 μM) obtained from Tocris, or the JAK-1, 2 inhibitor, INC424, (aka Ruxolitinib; 20 μM (Selleck BioChem)). For the determination of RORγt-dependent signaling, SR1001 (20 μM; Sigma) was used, which inhibits RORγt binding to the IL-17 promoter site. All inhibitors were added to neutrophils 2 h prior to recombinant IL-6 and IL-23 stimulation.\nNeutrophil and corneal cell RNA was extracted using the RNeasy mini kit according to the manufacturer's directions (Qiagen, Valencia, Calif.). The quality of RNA was checked by spectrophotometry, and only samples with a 260/280 ratio of 2.0 were used to generate cDNA. The SuperScript First Strand synthesis system (Invitrogen) was used to generate cDNA according to the manufacturer's directions.\nThe SYBR green system (Applied Biosystems, Carlsbad, Calif.) was utilized for quantitative PCR (qPCR) using ABI Biosystems. PCR products were then run on a 1% agarose gel, and visualized using ethidium bromide. PCR products were compared to Actb (encoding the β-actin gene) or GAPDH as the controls for gel loading."}}}
{"smiles": "O=[N+]([O-])c1ccc2c(c1)S(=O)(=O)C=C2", "note": "[Stattic]", "values": [{"measurement": "hyphal killing activity", "setting": "A. fumigatus hyphae; plus rIL-17A", "result": "enhanced hyphal killing activity was detected"}, {"measurement": "hyphal growth (fluorescent fungal mass)", "setting": "A. fumigatus hyphae; without rIL-17A", "result": "did not further impede hyphal growth"}, {"measurement": "RORγt localisation by confocal microscopy", "setting": "RORγt", "result": "only detected in the cytoplasm"}, {"measurement": "RORγt in nuclear extracts", "setting": "RORγt; western blot, FIG. 5B", "result": "no longer detectable"}, {"measurement": "IL-17RC expression", "setting": "IL-17RC", "result": "did not inhibit"}]}
